# Measured values as given in patent US12043630B2, “Polymorphic form of TG02 for treating cancer” (Cothera Bioscience, Inc., priority 2017, dated 2024).
# Structures can show the parent of a compound that is named as a salt.
# Experiments:
# [1] = Slurry of mixed TG02 citrate polymorphs in solvents, XRPD of recovered solids (Method B); assay type: physicochemical; conditions: 4 days
# Method: Method B: A homogeneous mixture of TG02 Form X (citrate), TG02 Citrate Pattern 1 of U.S. Pat. No. 9,120,815, and TG02 Citrate Pattern 2 of U.S. Pat. No. 9,120,815 was treated with solvent (20 vol.) and agitated for 4 days at different temperatures (5° C., 25° C., and 50° C.). The recovered solids were air dried and analysed by XRPD.
# [2] = Storage at elevated temperature and relative humidity, re-analysis by XRPD; assay type: physicochemical; conditions: for XRPD following storage at elevated temperatures and relative humidity: 28 days
# Source text: X-ray Powder Diffraction (XRPD or PXRD) diffractograms were collected on a Bruker AXS C2 GADDS, Bruker AXS DB Advance, PANalytical Empyrean, or similar diffractometer using Cu Kα radiation.
# Proton NMR was consistent with the proposed structure. However, as the methylene protons of the citric acid overlapped with the D6-DMSO reference peak, the stoichiometric equivalence of citrate acid is slightly offset. […] Differential scanning calorimetry thermal events included a single broad endotherm at 204.5° C. (366.9 J/g).
# Proton NMR analysis was consistent with the proposed structure, although there was overlap of the methylene protons of the citrate and the D6-DMSO reference peak. […] (327.7 J/g).
# These additional peaks remained throughout the 28 days storage period. This may be caused by dehydration of the hydrate. Proton NMR analysis was consistent with the proposed structure, although there was overlap of the methylene protons of the citrate and the D6-DMSO reference peak. […] Differential scanning calorimetry consisted of a broad, asymmetrical endotherm between 25-115° C. (70.2 J/g) followed by a large endotherm at 186.0° C. (313.4 J/g), possibly due to the sample melt and dissolution of the salt. […] Water content was determined by Karl Fischer analysis to be 3.3%, equating to 1 molar equivalent of water.
# [3] = Gravimetric Vapour Sorption (GVS); assay type: physicochemical; conditions: for Hygroscopicity by GVS analysis / GVS uptake: 25° C.; for GVS uptake: between 0-90% RH
# Method: Sorption isotherms were obtained using a SMS DVS Intrinsic moisture sorption analyser, controlled by DVS Intrinsic Control software. The sample temperature was maintained at 25° C. by the instrument controls. The humidity was controlled by mixing streams of dry and wet nitrogen, with a total flow rate of 200 ml/min. The relative humidity was measured by a calibrated Rotronic probe (dynamic range of 1.0-100% RH), located near the sample. The weight change, (mass relaxation) of the sample as a function of % RH was constantly monitored by a microbalance (accuracy±0.005 mg).
# Typically, 5-30 mg of sample was placed in a tared mesh stainless steel basket under ambient conditions. The sample was loaded and unloaded at 40% RH and 25° C. (typical room conditions). A moisture sorption isotherm was performed as outlined below (2 scans per complete cycle). The standard isotherm was performed at 25° C. at 10% RH intervals over a 0-90% RH range. Typically, a double cycle (4 scans) was carried out. Data analysis was carried out within Microsoft Excel using the DVS Analysis Suite.
# The sample was recovered after completion of the isotherm and re-analysed by XRPD.
# [4] = Thermodynamic Aqueous Solubility; assay type: physicochemical; conditions: aqueous media; for Thermodynamic solubility: 25° C., 24 hours
# Method: Aqueous solubility was determined by suspending sufficient compound in relevant media to give a maximum final concentration of ≥10 mg/ml of the parent freeform of the compound. The suspension was equilibrated at 25° C., on a Heidolph plate shaker set to 750 rpm for 24 hours. The pH of the saturated solution was then measured and the suspension filtered through a glass fibre C filter (particle retention 1.2 μm) and diluted appropriately. Quantitation was by HPLC with reference to a standard solution of approximately 0.15 mg/ml in DMSO. Different volumes of the standard, diluted and undiluted sample solutions were injected. The solubility was calculated using the peak areas determined by integration of the peak found at the same retention time as the principal peak in the standard injection.
# CDK1 = CDK1 (Homo sapiens, UniProt P06493); conditions: cited from earlier work
# Chain of CDK1 (P06493 whole entry): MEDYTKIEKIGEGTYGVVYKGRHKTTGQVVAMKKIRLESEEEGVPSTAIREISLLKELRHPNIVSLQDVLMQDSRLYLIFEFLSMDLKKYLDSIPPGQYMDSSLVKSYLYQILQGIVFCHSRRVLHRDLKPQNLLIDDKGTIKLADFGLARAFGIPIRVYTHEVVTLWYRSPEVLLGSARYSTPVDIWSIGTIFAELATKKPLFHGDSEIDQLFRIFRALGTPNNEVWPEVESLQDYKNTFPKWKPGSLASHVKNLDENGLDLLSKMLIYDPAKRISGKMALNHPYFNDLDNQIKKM
# Chain of CDK1 (P14635 whole entry partner): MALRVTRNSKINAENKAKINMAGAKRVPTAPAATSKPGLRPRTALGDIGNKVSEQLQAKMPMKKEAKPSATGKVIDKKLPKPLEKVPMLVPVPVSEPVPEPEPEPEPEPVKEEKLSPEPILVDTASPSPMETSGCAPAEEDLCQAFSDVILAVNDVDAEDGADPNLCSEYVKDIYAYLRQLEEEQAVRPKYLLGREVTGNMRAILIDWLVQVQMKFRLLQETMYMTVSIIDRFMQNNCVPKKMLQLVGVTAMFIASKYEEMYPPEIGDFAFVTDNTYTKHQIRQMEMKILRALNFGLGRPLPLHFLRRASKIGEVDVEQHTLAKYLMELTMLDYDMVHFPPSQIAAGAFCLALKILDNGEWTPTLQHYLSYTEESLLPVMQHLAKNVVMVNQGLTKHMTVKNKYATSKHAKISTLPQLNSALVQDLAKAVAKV
# CDK2 = CDK2 (Homo sapiens, UniProt P24941); conditions: cited from earlier work
# CDK5 = CDK5 (Homo sapiens, UniProt Q00535); conditions: cited from earlier work
# Chain of CDK5 (Q00535 whole entry): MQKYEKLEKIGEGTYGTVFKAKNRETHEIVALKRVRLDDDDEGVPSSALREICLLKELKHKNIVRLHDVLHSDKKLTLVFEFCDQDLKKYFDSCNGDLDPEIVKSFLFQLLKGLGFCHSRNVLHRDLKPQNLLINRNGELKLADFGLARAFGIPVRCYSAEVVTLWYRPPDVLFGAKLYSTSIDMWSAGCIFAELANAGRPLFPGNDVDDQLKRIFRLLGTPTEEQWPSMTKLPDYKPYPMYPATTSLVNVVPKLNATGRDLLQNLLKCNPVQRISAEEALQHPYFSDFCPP
# Chain of CDK5 (Q15078 whole entry partner): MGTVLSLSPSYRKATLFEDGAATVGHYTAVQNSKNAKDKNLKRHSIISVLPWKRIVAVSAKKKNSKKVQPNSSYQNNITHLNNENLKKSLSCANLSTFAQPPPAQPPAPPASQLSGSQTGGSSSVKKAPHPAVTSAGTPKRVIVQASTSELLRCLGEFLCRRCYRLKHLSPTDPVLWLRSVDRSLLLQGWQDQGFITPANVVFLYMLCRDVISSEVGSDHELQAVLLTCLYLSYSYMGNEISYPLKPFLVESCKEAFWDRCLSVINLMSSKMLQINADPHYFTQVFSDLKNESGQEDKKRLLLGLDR
# CDK7 = CDK7 (Homo sapiens, UniProt P50613); conditions: cited from earlier work
# Chain of CDK7 (P50613 whole entry): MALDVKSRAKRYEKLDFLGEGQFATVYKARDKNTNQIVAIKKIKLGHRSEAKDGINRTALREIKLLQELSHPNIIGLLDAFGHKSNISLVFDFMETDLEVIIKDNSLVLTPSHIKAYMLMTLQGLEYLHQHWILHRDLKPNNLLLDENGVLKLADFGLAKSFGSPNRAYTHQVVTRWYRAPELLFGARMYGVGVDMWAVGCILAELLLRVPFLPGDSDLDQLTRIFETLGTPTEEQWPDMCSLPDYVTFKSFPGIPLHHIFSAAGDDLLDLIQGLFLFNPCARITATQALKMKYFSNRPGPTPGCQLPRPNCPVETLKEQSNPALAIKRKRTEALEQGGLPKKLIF
# Chain of CDK7 (P51946 whole entry partner): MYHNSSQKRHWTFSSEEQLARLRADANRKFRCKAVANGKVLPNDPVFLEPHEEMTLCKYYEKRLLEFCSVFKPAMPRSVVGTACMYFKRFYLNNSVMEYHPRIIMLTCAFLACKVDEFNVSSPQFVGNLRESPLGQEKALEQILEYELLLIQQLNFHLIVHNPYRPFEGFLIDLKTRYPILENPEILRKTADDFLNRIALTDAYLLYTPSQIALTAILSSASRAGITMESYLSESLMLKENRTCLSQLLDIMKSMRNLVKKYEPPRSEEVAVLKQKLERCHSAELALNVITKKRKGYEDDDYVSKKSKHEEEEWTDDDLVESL
# Chain of CDK7 (P51948 whole entry partner): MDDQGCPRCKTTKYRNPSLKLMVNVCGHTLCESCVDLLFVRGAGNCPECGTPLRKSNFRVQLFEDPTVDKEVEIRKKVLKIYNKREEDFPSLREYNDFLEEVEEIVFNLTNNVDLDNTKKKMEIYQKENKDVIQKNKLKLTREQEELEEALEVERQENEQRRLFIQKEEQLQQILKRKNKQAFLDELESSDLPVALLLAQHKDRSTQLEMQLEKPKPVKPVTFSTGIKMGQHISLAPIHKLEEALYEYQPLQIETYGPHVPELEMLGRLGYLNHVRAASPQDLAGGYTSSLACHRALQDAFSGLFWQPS
# CDK9 = CDK9 (Homo sapiens, UniProt P50750); conditions: cited from earlier work
# Chain of CDK9 (P50750 whole entry): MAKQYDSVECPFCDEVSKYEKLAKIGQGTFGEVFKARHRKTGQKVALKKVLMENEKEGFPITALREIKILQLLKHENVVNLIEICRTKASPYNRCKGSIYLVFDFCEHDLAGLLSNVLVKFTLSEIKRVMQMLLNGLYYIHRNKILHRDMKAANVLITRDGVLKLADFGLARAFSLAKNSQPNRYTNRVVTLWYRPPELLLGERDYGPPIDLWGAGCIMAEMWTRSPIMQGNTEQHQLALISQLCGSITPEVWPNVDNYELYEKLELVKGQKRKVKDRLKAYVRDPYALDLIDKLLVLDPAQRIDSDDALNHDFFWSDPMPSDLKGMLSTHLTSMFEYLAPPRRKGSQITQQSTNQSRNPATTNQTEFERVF
# Chain of CDK9 (O60563 whole entry partner): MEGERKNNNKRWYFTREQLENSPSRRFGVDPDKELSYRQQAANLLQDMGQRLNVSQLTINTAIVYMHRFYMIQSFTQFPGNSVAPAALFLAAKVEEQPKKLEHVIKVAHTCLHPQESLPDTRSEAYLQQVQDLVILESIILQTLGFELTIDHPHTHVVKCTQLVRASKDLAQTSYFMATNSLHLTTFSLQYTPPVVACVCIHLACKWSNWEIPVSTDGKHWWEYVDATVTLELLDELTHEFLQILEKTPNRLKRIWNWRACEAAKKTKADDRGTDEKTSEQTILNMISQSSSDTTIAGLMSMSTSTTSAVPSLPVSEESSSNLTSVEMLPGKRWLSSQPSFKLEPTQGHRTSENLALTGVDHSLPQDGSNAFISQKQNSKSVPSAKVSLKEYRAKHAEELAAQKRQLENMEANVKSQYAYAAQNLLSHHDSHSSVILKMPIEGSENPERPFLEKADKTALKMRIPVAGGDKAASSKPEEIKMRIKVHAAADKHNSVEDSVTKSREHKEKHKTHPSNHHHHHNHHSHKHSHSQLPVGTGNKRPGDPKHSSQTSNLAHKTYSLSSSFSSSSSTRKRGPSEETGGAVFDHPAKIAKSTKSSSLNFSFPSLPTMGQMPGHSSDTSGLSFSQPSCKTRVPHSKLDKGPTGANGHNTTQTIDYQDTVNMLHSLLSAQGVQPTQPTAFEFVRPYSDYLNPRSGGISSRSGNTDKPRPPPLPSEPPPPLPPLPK
# JAK2 = JAK2 (Homo sapiens, UniProt O60674); conditions: cited from earlier work
# Chain of JAK2 (O60674 whole entry): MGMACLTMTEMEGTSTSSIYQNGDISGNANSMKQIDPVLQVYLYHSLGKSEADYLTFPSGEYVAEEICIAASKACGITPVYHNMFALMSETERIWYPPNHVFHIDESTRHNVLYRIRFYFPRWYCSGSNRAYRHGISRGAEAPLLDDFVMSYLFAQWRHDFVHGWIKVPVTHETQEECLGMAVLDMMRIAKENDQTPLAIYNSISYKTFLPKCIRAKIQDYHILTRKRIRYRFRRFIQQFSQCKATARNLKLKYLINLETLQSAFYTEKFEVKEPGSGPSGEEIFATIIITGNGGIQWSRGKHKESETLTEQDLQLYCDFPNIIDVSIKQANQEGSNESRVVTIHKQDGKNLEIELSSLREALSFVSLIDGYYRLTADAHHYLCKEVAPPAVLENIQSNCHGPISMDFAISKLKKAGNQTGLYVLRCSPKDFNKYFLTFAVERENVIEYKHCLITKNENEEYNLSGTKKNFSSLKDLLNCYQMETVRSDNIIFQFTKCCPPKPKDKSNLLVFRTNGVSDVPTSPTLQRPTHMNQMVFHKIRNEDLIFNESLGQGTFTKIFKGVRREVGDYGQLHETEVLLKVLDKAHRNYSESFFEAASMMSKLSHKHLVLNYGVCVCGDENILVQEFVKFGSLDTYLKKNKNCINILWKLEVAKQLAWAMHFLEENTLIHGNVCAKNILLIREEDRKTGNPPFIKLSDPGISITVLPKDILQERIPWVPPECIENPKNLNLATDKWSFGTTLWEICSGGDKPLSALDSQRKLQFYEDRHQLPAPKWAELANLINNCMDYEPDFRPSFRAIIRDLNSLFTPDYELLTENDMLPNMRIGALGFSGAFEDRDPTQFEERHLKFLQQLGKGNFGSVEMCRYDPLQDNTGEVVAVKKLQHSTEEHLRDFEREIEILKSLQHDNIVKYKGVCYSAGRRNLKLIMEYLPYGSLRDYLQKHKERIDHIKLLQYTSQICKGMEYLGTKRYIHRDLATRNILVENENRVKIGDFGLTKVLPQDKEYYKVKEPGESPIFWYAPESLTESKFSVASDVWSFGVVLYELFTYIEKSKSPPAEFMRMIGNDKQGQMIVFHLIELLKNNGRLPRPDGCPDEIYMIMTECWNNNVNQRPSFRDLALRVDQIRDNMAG
# FLT3 = biological target: T1, FLT3 (Homo sapiens, UniProt P36888); conditions: cited from earlier work
# T1 sequence (P36888 27-993): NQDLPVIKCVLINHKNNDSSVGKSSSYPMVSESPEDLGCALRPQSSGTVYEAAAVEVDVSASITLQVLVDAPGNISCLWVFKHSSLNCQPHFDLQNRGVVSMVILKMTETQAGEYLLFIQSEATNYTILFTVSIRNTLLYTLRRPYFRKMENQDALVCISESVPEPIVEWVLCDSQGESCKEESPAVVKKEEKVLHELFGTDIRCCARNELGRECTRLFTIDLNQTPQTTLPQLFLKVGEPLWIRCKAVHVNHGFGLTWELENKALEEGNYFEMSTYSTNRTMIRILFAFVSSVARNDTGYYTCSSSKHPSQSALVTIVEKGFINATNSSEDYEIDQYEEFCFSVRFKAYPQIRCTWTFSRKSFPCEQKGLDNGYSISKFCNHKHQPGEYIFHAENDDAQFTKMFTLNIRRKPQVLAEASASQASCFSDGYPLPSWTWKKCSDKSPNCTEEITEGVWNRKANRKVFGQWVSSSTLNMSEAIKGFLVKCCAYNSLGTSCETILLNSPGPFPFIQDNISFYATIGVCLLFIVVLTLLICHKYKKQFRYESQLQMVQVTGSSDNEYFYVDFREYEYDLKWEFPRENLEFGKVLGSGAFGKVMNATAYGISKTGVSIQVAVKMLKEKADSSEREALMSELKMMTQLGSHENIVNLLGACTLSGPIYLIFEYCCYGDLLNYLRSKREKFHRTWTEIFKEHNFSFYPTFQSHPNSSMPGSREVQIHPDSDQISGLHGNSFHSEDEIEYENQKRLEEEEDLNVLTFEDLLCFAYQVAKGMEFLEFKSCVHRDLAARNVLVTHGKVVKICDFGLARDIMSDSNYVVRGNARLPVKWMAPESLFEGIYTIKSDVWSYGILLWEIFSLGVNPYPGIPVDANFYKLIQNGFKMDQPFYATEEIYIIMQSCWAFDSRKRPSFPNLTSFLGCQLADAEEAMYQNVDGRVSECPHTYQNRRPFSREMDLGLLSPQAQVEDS
# [5] = tested on: signaling pathways downstream of CDKs, JAK2 and FLT3 in cancer cells; conditions: cited from earlier work
# tumor cell lines = conditions: cited from earlier work
# [6] = tested on: progenitor cells derived from acute myeloid leukemia (AML) and polycythemia vera patients; conditions: cited from earlier work
# [7] = 40° C./75% RH, 25° C./97% RH and 60° C./ambient RH
compound,measurement,setting,value
CN1C/C=C/CCOc2cccc(c2)-c2ccnc(n2)Nc2cccc(c2)C1 [TG02 (Citrate)],TG02 (Citrate) Polymorph recovered (XRPD),"[1]; Acetone 20 vol., 5° C.",Form X
same,TG02 (Citrate) Polymorph recovered (XRPD),"[1]; Acetone 20 vol., 25° C.",Form X
same,TG02 (Citrate) Polymorph recovered (XRPD),"[1]; Acetone 20 vol., 50° C.",Form X
same,TG02 (Citrate) Polymorph recovered (XRPD),"[1]; Acetone:H2O (9:1) 20 vol., 5° C.",Pattern 2
same,TG02 (Citrate) Polymorph recovered (XRPD),"[1]; Acetone:H2O (9:1) 20 vol., 25° C.",Pattern 2
same,TG02 (Citrate) Polymorph recovered (XRPD),"[1]; Acetone:H2O (9:1) 20 vol., 50° C.",Pattern 2
same,TG02 (Citrate) Polymorph recovered (XRPD),"[1]; DCM:H2O (9:1) 20 vol., 5° C.",Pattern 2 + Form X
same,TG02 (Citrate) Polymorph recovered (XRPD),"[1]; DCM:H2O (9:1) 20 vol., 25° C.",Pattern 2
same,TG02 (Citrate) Polymorph recovered (XRPD),"[1]; DCM:H2O (9:1) 20 vol., 50° C.",Form X
same,TG02 (Citrate) Polymorph recovered (XRPD),"[1]; EtOAc 20 vol., 5° C.",Pattern 2 + Form X
same,TG02 (Citrate) Polymorph recovered (XRPD),"[1]; EtOAc 20 vol., 25° C.",Form X
same,TG02 (Citrate) Polymorph recovered (XRPD),"[1]; EtOAc 20 vol., 50° C.",Form X
same,TG02 (Citrate) Polymorph recovered (XRPD),"[1]; H2O 20 vol., 5° C.",Pattern 2
same,TG02 (Citrate) Polymorph recovered (XRPD),"[1]; H2O 20 vol., 25° C.",Pattern 2
same,TG02 (Citrate) Polymorph recovered (XRPD),"[1]; H2O 20 vol., 50° C.",Pattern 2
same,TG02 (Citrate) Polymorph recovered (XRPD),"[1]; IPA 20 vol., 5° C.",Form X
same,TG02 (Citrate) Polymorph recovered (XRPD),"[1]; IPA 20 vol., 25° C.",Form X
same,TG02 (Citrate) Polymorph recovered (XRPD),"[1]; IPA 20 vol., 50° C.",Form X
same,TG02 (Citrate) Polymorph recovered (XRPD),"[1]; TBME 20 vol., 5° C.",Pattern 2 + Form X
same,TG02 (Citrate) Polymorph recovered (XRPD),"[1]; TBME 20 vol., 25° C.",Pattern 2 + Form X
same,TG02 (Citrate) Polymorph recovered (XRPD),"[1]; TBME 20 vol., 50° C.",Form X
same,TG02 (Citrate) Polymorph recovered (XRPD),"[1]; THF:H2O (9:1) 20 vol., 5° C.",Pattern 2
same,TG02 (Citrate) Polymorph recovered (XRPD),"[1]; THF:H2O (9:1) 20 vol., 25° C.",Pattern 2
same,TG02 (Citrate) Polymorph recovered (XRPD),"[1]; THF:H2O (9:1) 20 vol., 50° C.",Pattern 2
"CN1C/C=C/CCOc2cccc(c2)-c2ccnc(n2)Nc2cccc(c2)C1 [TG02 Citrate Pattern 2, (16E)-14-methyl-20-oxa-5,7,14,26-tetraazatetracyclo[19.3.1.1(2,6).1(8,12)]heptacosa-1(25),2(26),3,5,8(27),9,11,16,21,23-decaene]",XRPD following storage at elevated temperatures and relative humidity,[2]; 40° C./75% RH and 25° C./97% RH,remained unchanged by XRPD
same,XRPD following storage,"[2]; 60° C./ambient RH, peaks remained throughout 28 days",additional peaks being present in the XRPD diffractogram after 7 days
same,XRPD following GVS analysis,[3],remained unchanged by XRPD
same,Hygroscopicity by GVS analysis,[3],hygroscopic
same,GVS uptake,[3],3.84%
same,GVS maximum hysteresis,[3]; between 10-30% RH,1.4%
same,XRPD following thermodynamic solubility analysis,[4],remained unchanged by XRPD
same,Thermodynamic solubility,[4],0.23 mg/mL
"CN1C/C=C/CCOc2cccc(c2)-c2ccnc(n2)Nc2cccc(c2)C1 [TG02, (16E)-14-methyl-20-oxa-5,7,14,26-tetraazatetracyclo[19.3.1.1(2,6).1(8,12)]heptacosa-1(25),2(26),3,5,8(27),9,11,16,21,23-decaene]",Inhibition of CDK1,CDK1,inhibits
same,Inhibition of CDK2,CDK2,inhibits
same,Inhibition of CDK5,CDK5,inhibits
same,Inhibition of CDK7,CDK7,inhibits
same,Inhibition of CDK9,CDK9,inhibits
same,Inhibition of JAK2,JAK2,inhibits
same,Inhibition of FLT3,FLT3,inhibits
same,"Inhibition of signaling pathways downstream of CDKs, JAK2 and FLT3",[5],dose-dependently inhibits
same,Anti-proliferative activity,tumor cell lines; broad range of tumor cell lines,anti-proliferative
same,Cell cycle arrest and apoptosis,tumor cell lines; tumor cell lines,inducing Gi cell cycle arrest and apoptosis
same,Sensitivity of primary cultures to TG02,[6],very sensitive
"CN1C/C=C/CCOc2cccc(c2)-c2ccnc(n2)Nc2cccc(c2)C1 [Form X (citrate), (16E)-14-methyl-20-oxa-5,7,14,26-tetraazatetracyclo[19.3.1.1(2,6).1(8,12)]heptacosa-1(25),2(26),3,5,8(27),9,11,16,21,23-decaene]",XRPD following storage at elevated temperatures and relative humidity,[2]; [7],remained unchanged by XRPD
same,XRPD following GVS analysis,[3],remained unchanged by XRPD
same,Hygroscopicity by GVS analysis,[3],non-hygroscopic
same,GVS uptake,[3],0.13%
same,GVS maximum hysteresis,[3]; between 40-60% RH,0.04%
same,Thermodynamic solubility,[4],0.64 mg/mL
"CN1C/C=C/CCOc2cccc(c2)-c2ccnc(n2)Nc2cccc(c2)C1 [TG02 Citrate Pattern 1, (16E)-14-methyl-20-oxa-5,7,14,26-tetraazatetracyclo[19.3.1.1(2,6).1(8,12)]heptacosa-1(25),2(26),3,5,8(27),9,11,16,21,23-decaene]",XRPD following storage at elevated temperatures and relative humidity,[2]; [7],remained unchanged by XRPD
same,XRPD following GVS analysis,[3],remained unchanged by XRPD
same,Hygroscopicity by GVS analysis,[3],slightly-hygroscopic
same,GVS uptake,[3],1.0%
same,GVS maximum hysteresis,[3]; between 40-50% RH,0.2%
same,XRPD following thermodynamic solubility analysis,[4],form change from TG02 Citrate Pattern 1 to TG02 Citrate Pattern 2
same,Thermodynamic solubility,[4],0.33 mg/mL
